According to patent publication US11957680B2, “Pyruvate kinase activators for use in treating blood disorders” (Agios Pharmaceuticals, Inc., priority 2017, dated 2024):

Assays:
[1] = target: T1, wild type PKR (Homo sapiens, UniProt P30613); experiment: Cell based ATP assay in purified red blood cells (Cell-Titer-Glo); set-up: endogenous in cells; host or cells: purified red blood cells from healthy volunteers; conditions: overnight at 37° C., ATP levels; for AC50 / Cell based ATP assay AC50: Table 2, RBCs
Description: Example 16. Red Blood Cell (RBC) Purification
Fresh blood drawn from healthy volunteers into K2EDTA tubes was collected. Whole blood was pelleted by spinning at 500 g for 10 minutes. Cut transfusion bag port off of Purecell leukocyte reduction neofilter (Fisher NC0267633) one (1) inch above filter. Attach a 10 ml syringe barrel to the remaining cut tubing attached to neofilter. The plasma layer was removed from the pellet of the whole blood and the pellet was resuspended in 2× volume of phosphate buffered saline (PBS). Transfer 9 ml re-suspended blood cell pellet to prepared 10 ml syringe that is attached to the neofilter. Allow whole blood to gravity flow through filter until all fluid runs through upper tubing into filter disc. Add plunger to the syringe, remove syringe from clamp and invert the filter, then plunge air through the syringe filter system. Using a new 5 ml syringe, remove filtered RBCs from the bag by the syringe port and transfer purified RBCs to a 5 ml snap cap tube that has been incubated on ice. Spin 5 ml snap cap tube at 500 g for 10 minutes at 15 C, aspirate supernatant and resuspend in AGAM (1×PBS, 1% glucose, 170 mg/L adenine, 5.25 g/L mannitol) at a density of 4×10^9 cells/mL.
Example 17. Cell Based ATP Assay
For cell based ATP assays, the compound as described herein was prepared in 100% DMSO as a 10 mM stock. Serial dilutions (1:4) were performed in 96-well V-bottom storage plate and then added 1:100 to 96-well V-bottom plates containing AGAM. RBCs were diluted in AGAM media to a density of 1×10^7 cells/mL before added 90 μL/well to black clear bottom assay plates (final compound concentration at 0.1% DMSO concentration). Assay plates were sealed using aluminum foil seals and incubated overnight at 37° C. in a humidified chamber. ATP levels were read out using Cell-Titer-Glo (Promega).

[2] = target: T1, wild type PKR; experiment: PKR (wild type) enzyme AC50 assay, LDH/NADH-coupled, absorbance at 340 nm; assay type: biochemical; conditions: for EC50: Table 4, AC50, enzyme assay, read-out: PKR WT; for AC50: Table 2, enzyme assay, read-out: PKR WT AC50
Description: (§1) Example 11. PKR Mutant Assay
(§2) PKR or PKR mutant enzyme solution was diluted into a reaction mix, which contains 1× buffer (100 mM KCl, 50 mM Tris pH 7.5, 5 mM MgCl2) as well as PEP (conc depends on enzyme), 180 μM NADH, 0.5 units LDH, 1 mM DTT, 0.03% BSA; final assay concentrations after 1.11 fold dilution are indicated.
(§3) 2 μL of test compound was added into wells first, and then 180 μL reaction mix was added.
(§4) Reactions mixture with test compound was assembled except for ADP, and plates were stored for 60 minutes at room temperature.
(§5) 20 uL ADP was added to start reaction at room temperature and reaction progress was measured as changes in absorbance at 340 nm wavelength at room temperature.
(§6) Test Compound Preparation:
(§7) Test compound stock was made at 100× concentration in 100% DMSO (10 mM)
(§8) 1 to 3 dilutions were made for 11 points (i.e. 50 μl of first concentration added to 100 μl 100% DMSO to yield 3.33 mM, 50 μl of this added to 100 μl DMSO to yield 1.11 mM, and so forth) • 1 to 100 dilution into assay (2 μl in 200 μl) yielded starting concentration of 100 μM, decreasing 3 fold for 11 points.
(§9) Assay Buffer: 100 mM KCl, 50 mM Tris 7.5, 5 mM MgCl2, 1 mM DTT, 0.03% BSA
(§10) Reaction Mixture: PKR mutant enzyme: 40-400 ng/well; ADP: 0.2-1.65 mM; PEP: 0.1-0.5 mM; NADH: 180 μM; LDH: 0.5 units (Sigma #59023); DTT: 1 mM; BSA: 0.03%.

[3] = target: PKR K410E (Homo sapiens, UniProt P30613, K410E); experiment: PKR mutant assay (K410E), AC50, LDH/NADH-coupled, absorbance at 340 nm; assay type: biochemical; conditions: for AC50: Table 2, enzyme assay
Description: as §1, §2, §3, §4, §5, §6, §7, §8, §9, §10

[4] = target: PKR R510Q (Homo sapiens, UniProt P30613, R510Q); experiment: PKR mutant assay (R510Q), AC50, LDH/NADH-coupled, absorbance at 340 nm; assay type: biochemical; conditions: for EC50: read-out: PK R510Q; for AC50: read-out: PK R510Q AC50
Description: as §1, §2, §3, §4, §5, §6, §7, §8, §9, §10

T1 sequence (P30613 whole entry): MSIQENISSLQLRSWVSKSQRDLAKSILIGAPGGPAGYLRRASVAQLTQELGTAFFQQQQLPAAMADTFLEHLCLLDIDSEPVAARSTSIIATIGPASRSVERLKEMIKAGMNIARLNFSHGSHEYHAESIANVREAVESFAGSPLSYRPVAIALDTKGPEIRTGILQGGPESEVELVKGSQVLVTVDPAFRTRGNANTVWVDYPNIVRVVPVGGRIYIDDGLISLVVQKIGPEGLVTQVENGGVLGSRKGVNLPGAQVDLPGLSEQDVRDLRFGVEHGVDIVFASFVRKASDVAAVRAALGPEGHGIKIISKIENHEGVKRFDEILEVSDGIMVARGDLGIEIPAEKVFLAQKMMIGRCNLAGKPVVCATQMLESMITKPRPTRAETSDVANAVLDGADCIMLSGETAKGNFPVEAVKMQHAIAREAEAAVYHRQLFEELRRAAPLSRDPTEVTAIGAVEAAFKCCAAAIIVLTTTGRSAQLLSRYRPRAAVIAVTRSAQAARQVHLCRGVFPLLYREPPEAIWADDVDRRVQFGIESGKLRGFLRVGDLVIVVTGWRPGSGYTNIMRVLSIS
Chain of PKR K410E (P30613 whole entry K410E): as the sequence (P30613 whole entry) above, with K410E counted along it
Chain of PKR R510Q (P30613 whole entry R510Q): as the sequence (P30613 whole entry) above, with R510Q counted along it

Compound	EC50 ([1]; Table 4, AC50, RBCs)	EC50 [2]	EC50 ([3]; Table 4, AC50, enzyme assay)	EC50 ([4]; Table 4, AC50, enzyme assay)	AC50 [1]	AC50 [2]	AC50 [3]	AC50 ([4]; Table 2, enzyme assay)	other results
COc1cc(Cc2nc3c(s2)c2cnn(Cc4cccc5[nH]ncc45)c(=O)c2n3C)ccn1 [Compound 215]	≤ 1000 nM	< 300 nM	< 300 nM	< 300 nM					
Cn1c2nc(Cc3cc[nH]n3)sc2c2cnn(Cc3ccc4ccccc4c3)c(=O)c21 [Compound 210]	≤ 1000 nM	< 300 nM	< 300 nM	< 300 nM					
Cn1c2nc(Cc3cccnc3)sc2c2cnn(Cc3cccc4[nH]ncc34)c(=O)c21 [Compound 164]					≤ 1000 nM	< 300 nM	< 300 nM	< 300 nM	
COc1cccc(Cn2ncc3c4sc(SC)nc4n(C)c3c2=O)c1 [Compound 23]					> 1000 nM	< 300 nM	< 300 nM	< 300 nM	
Cc1nc2c(s1)c1cnn(Cc3cccc(N)c3)c(=O)c1n2C [Compound 14]					≤ 1000 nM	< 300 nM	< 300 nM	< 300 nM	
Cc1nc2c(s1)c1cnn(Cc3cccc(C(=O)O)c3)c(=O)c1n2C [Compound 11]						> 800 nM	> 800 nM	> 800 nM	Cell based ATP assay AC50 [1]: No Fit
Cn1c2nc([S+](C)[O-])sc2c2cnn(Cc3cccc4c3CCNC4)c(=O)c21 (stereo not shown) [Compound 80]					> 1000 nM	> 800 nM	> 800 nM	< 300 nM	
Cn1c2nc(Cc3cc[nH]n3)sc2c2cnn(Cc3n[nH]c4cccnc34)c(=O)c21 [Compound 379]	≤ 1000 nM	< 300 nM	< 300 nM	< 300 nM					
CC(c1ccccc1)c1nc2c(s1)c1cnn(Cc3cccc4c3cnn4C)c(=O)c1n2C (stereo not shown) [Compound 120]					≤ 1000 nM	301 to 800 nM	301 to 800 nM	301 to 800 nM	
COc1cccc(Cn2ncc3c4sc(C(C)=O)nc4n(C)c3c2=O)c1 [Compound 62]					≤ 1000 nM	< 300 nM	< 300 nM	< 300 nM	
Cc1nc2c(s1)c1cnn(Cc3ccccc3O)c(=O)c1n2C [Compound 18]					≤ 1000 nM	301 to 800 nM	301 to 800 nM	< 300 nM	
CNc1ccc(Cn2ncc3c4sc(C)nc4n(C)c3c2=O)cc1 [Compound 69]					> 1000 nM	> 800 nM	> 800 nM	301 to 800 nM	
Cn1c2nc(Cc3csc(CO)n3)sc2c2cnn(Cc3cccc4[nH]ncc34)c(=O)c21 [Compound 168]					≤ 1000 nM	< 300 nM	< 300 nM	< 300 nM	
Cn1c2nc(Cc3ccns3)sc2c2cnn(Cc3cccc4[nH]ncc34)c(=O)c21 [Compound 209]	≤ 1000 nM	> 800 nM	> 800 nM	> 800 nM					
Cc1nc2c(s1)c1cnn(Cc3ccc(CO)cc3)c(=O)c1n2C [Compound 44]					> 1000 nM	> 800 nM	> 800 nM	> 800 nM	
Cc1nc2c(s1)c1cnn(Cc3ccc4[nH]c(=O)[nH]c4c3)c(=O)c1n2C [Compound 61]						> 800 nM	> 800 nM	> 800 nM	Cell based ATP assay AC50 [1]: No Fit
Cn1c2nc(C(N)c3cc[nH]n3)sc2c2cnn(Cc3cccc4[nH]ncc34)c(=O)c21 (stereo not shown) [Compound 177]					≤ 1000 nM	< 300 nM	< 300 nM	< 300 nM	
Cn1c2nc(Cc3cc[nH]n3)sc2c2cnn(CCc3cccc(N)n3)c(=O)c21 [Compound 385]	≤ 1000 nM	< 300 nM	< 300 nM	< 300 nM					
Cn1c2nc(CCO)sc2c2cnn(Cc3cccc4[nH]ncc34)c(=O)c21 [Compound 124]					≤ 1000 nM	< 300 nM	< 300 nM	< 300 nM	
COc1cccc(Cn2ncc3c4sc(C(F)c5ccccc5)nc4n(C)c3c2=O)c1 (stereo not shown) [Compound 12]						< 300 nM	< 300 nM	< 300 nM	

Second part, led by results:

EC50 ([1]; Table 4, AC50, RBCs)	EC50 [2]	EC50 ([3]; Table 4, AC50, enzyme assay)	EC50 ([4]; Table 4, AC50, enzyme assay)	AC50 [1]	AC50 [2]	AC50 [3]	AC50 ([4]; Table 2, enzyme assay)	Compound	other results
≤ 1000 nM	< 300 nM	< 300 nM	< 300 nM					Cn1c2nc(Cc3cc[nH]n3)sc2c2cnn(Cc3cccc4[nH]c(=O)[nH]c34)c(=O)c21 [Compound 252]	
				≤ 1000 nM	< 300 nM	< 300 nM	< 300 nM	Cn1c2nc(Cc3cc[nH]n3)sc2c2cnn(Cc3cccc4[nH]ncc34)c(=O)c21 [Compound 81]	
				≤ 1000 nM	< 300 nM	< 300 nM	< 300 nM	Cc1nc2c(s1)c1cnn(Cc3cccc(N)n3)c(=O)c1n2C [Compound 74]	
≤ 1000 nM	< 300 nM	< 300 nM	< 300 nM					Cn1c2nc(Cc3cc[nH]n3)sc2c2cnn(Cc3ccc4scnc4c3)c(=O)c21 [Compound 237]	
≤ 1000 nM	< 300 nM	< 300 nM	< 300 nM					Cn1c2nc(Cc3cc[nH]n3)sc2c2cnn(Cc3ccc4nc[nH]c4n3)c(=O)c21 [Compound 381]	
> 1000 nM	> 800 nM	301 to 800 nM	> 800 nM					Cn1c2nc(Cn3ccnc3)sc2c2cnn(Cc3cccc4[nH]ncc34)c(=O)c21 [Compound 277]	
≤ 1000 nM	< 300 nM	< 300 nM	< 300 nM					Cn1c2nc(Cc3cc[nH]n3)sc2c2cnn(Cc3ccc4c(n3)NCC4)c(=O)c21 [Compound 384]	
	> 800 nM							O=c1c2c(cnn1Cc1ccccc1)c1sc(Cc3ccccn3)nc1n2-c1ccccc1 [Compound 405]	Cell based ATP assay ([1]; Table 4, AC50, RBCs): No Fit; PKR K410E ([3]; Table 4, AC50, enzyme assay): No Fit; PK R510Q ([4]; Table 4, AC50, enzyme assay): No Fit
				≤ 1000 nM	< 300 nM	< 300 nM	< 300 nM	Cn1c2nc(S(N)(=O)=O)sc2c2cnn(Cc3cccc4[nH]ncc34)c(=O)c21 [Compound 141]	
≤ 1000 nM	< 300 nM	< 300 nM	< 300 nM					Cn1c2nc(Cc3cc[nH]n3)sc2c2cnn(Cc3cccc4nn[nH]c34)c(=O)c21 [Compound 202]	
				≤ 1000 nM	301 to 800 nM	> 800 nM	301 to 800 nM	CCOC(=O)c1scnc1Cc1nc2c(s1)c1cnn(Cc3cccc4[nH]ncc34)c(=O)c1n2C [Compound 165]	
				≤ 1000 nM	< 300 nM	301 to 800 nM	301 to 800 nM	COc1cccc(Cn2ncc3c4sc(C)nc4n(C)c3c2=O)n1 [Compound 27]	
				≤ 1000 nM	> 800 nM	> 800 nM		Cn1c2nc([S+](C)[O-])sc2c2cnn(Cc3ccc(C#N)cc3)c(=O)c21 (stereo not shown) [Compound 75]	PK R510Q AC50 ([4]; Table 2, enzyme assay): No Fit
				≤ 1000 nM	< 300 nM	< 300 nM	< 300 nM	Cc1nc2c(s1)c1cnn(Cc3cccc(O)c3)c(=O)c1n2C [Compound 7]	
≤ 1000 nM	< 300 nM	< 300 nM	< 300 nM					Cn1c2nc(Cc3c[nH]cn3)sc2c2cnn(Cc3cccc4[nH]ncc34)c(=O)c21 [Compound 205]	
					< 300 nM	< 300 nM	< 300 nM	Cc1nc2c(s1)c1cnn(Cc3ccc(O)cc3)c(=O)c1n2C [Compound 16]	
				≤ 1000 nM	< 300 nM	< 300 nM		COc1ccc(Cn2ncc3c4sc(C)nc4n(C)c3c2=O)cc1 [Compound 2]	
